# In ChEMBL document CHEMBL1144946, “4-Amino-2-(aryl)-butylbenzamides and Their conformationally constrained analogues. Potent antagonists of the human neurokinin-2 (NK(2)) receptor” (Bioorg Med Chem Lett, 2003):
# Assays:
# [1] = species on record: Oryctolagus cuniculus; experiment: Ability to antagonise the contractile effects of the selective NK2 receptor agonist [B-ala8]NKA in the rabbit pulmonary artery (RPA); assay type: functional; details: read-out: pA2 (converted)
# [2] = biological target: T1, Substance-K receptor (Homo sapiens, UniProt P21452); experiment: Binding affinity for human tachykinin receptor 2 expressed in CHO cells using [125I]- NKA radioligand; assay type: cell-based
# T1 sequence (P21452 whole entry): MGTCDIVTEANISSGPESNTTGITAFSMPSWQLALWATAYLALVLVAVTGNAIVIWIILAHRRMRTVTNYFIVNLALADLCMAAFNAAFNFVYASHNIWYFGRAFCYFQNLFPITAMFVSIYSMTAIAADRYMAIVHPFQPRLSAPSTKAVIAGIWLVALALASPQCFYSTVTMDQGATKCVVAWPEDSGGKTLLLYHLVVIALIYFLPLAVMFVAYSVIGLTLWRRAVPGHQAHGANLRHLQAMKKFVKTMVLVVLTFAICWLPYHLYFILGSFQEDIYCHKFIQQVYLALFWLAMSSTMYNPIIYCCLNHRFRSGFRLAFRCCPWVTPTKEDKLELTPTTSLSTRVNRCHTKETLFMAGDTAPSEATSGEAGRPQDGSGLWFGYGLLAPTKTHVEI
# [3] = biological target: T2, Substance-K receptor (Rattus norvegicus) (UniProt P16610); experiment: Binding affinity towards […] using [125I]- NKA radioligand expressed in rat duodenum at 100 nM
# T2 sequence (whole entry): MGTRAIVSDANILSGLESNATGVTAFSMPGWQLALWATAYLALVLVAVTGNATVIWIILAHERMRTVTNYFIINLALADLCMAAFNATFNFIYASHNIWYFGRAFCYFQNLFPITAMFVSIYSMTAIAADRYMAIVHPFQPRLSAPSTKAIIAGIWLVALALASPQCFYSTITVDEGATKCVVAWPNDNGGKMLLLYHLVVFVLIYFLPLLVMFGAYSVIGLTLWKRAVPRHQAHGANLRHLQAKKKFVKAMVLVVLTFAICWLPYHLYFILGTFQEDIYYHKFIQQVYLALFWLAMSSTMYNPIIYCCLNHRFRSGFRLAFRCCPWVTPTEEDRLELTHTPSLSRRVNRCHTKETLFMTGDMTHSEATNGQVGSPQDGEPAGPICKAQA
# [4] = biological target: T1, Substance-K receptor; experiment: Binding affinity towards human Tachykinin receptor 2 using [125I]- NKA radioligand expressed in CHO cells; assay type: cell-based
pIC50 [2],inhibition [3],pIC50 [4],Compound,Kb [1]
7.7,,,CN(CC(CCN1CCC(n2ccnc2)CC1)c1ccc(Cl)c(Cl)c1)C(=O)c1ccccc1 (stereo not given),5.01 nM
,61%,,CCN(CC)C(=O)C1CCCN(CCC(CN(C)C(=O)c2ccccc2)c2ccc(Cl)c(Cl)c2)C1 (stereo not given),
7.1,,,CN(CC(CCN1CCCC(n2c(=O)[nH]c3ccccc32)C1)c1ccc(Cl)c(Cl)c1)C(=O)c1ccccc1 (stereo not given),
7.4,,,CN(CC(CCN1CCC(n2c(O)nc3ccccc32)C1)c1ccc(Cl)c(Cl)c1)C(=O)c1ccccc1 (stereo not given),
< 7,,,CN(CC(CCN1CCC(c2ccccc2)CC1)c1ccc(Cl)c(Cl)c1)C(=O)c1ccccc1 (stereo not given),
6.6,,,CN(CC(CCN1CCC(O)(c2ncc[nH]2)CC1)c1ccc(Cl)c(Cl)c1)C(=O)c1ccccc1 (stereo not given),
6.8,,,CN(CC(CCN1CCC(n2cncn2)CC1)c1ccc(Cl)c(Cl)c1)C(=O)c1ccccc1 (stereo not given),79.4 nM
6.3,,,CN(CC(CCN1CCCCC1)c1ccc(Cl)c(Cl)c1)C(=O)c1ccccc1 (stereo not given),
6.8,,,CN(CC(CCN1CC(n2ccnc2)C1)c1ccc(Cl)c(Cl)c1)C(=O)c1ccccc1 (stereo not given),25.1 nM
7.7,,,CN(CC(CCN1CC(N2CCOCC2)C1)c1ccc(Cl)c(Cl)c1)C(=O)c1ccccc1 (stereo not given),1.26 nM
6.4,,,CN(CC(CCN1CCC(O)CC1)c1ccc(Cl)c(Cl)c1)C(=O)c1ccccc1 (stereo not given),

# More lines, now with the values behind:
Compound,pIC50 [2],inhibition [3],pIC50 [4],Kb [1]
O=C(c1ccccc1)N1CC(CCN2CC(N3CCOCC3)C2)(c2ccc(Cl)c(Cl)c2)C1,7.2,,,7.94 nM
O=S(=O)(c1ccccc1)N1CCC(CCN2CC(N3CCOCC3)C2)(c2ccc(Cl)c(Cl)c2)C1 (stereo not given),6.7,,,63.1 nM
CN(CC(CCN1CCC(c2nc3ccccc3[nH]2)CC1)c1ccc(Cl)c(Cl)c1)C(=O)c1ccccc1 (stereo not given),7.3,,,50.1 nM
O=C(CC1CC1)N1CCC(CCN2CC(N3CCOCC3)C2)(c2ccc(Cl)c(Cl)c2)C1 (stereo not given),6.3,,,
CC(=O)NC1(c2ccccc2)CCN(CCC(CN(C)C(=O)c2ccccc2)c2ccc(Cl)c(Cl)c2)CC1 (stereo not given),,,8.9,0.794 nM
CN(CC(CCN1CCC(n2c(O)nc3ccccc32)CC1)c1ccc(Cl)c(Cl)c1)C(=O)c1ccccc1 (stereo not given),8.9,81%,,3.98 nM
CN(CC(CCN1CCC(O)(c2ccccc2)CC1)c1ccc(Cl)c(Cl)c1)C(=O)c1ccccc1 (stereo not given),8.9,,,0.316 nM
CN(CC(CCN1CCCC(n2c(O)nc3ccccc32)CC1)c1ccc(Cl)c(Cl)c1)C(=O)c1ccccc1 (stereo not given),8.4,,,3.98 nM
CN(CC(CCN1CCC(n2cnc3ccccc32)CC1)c1ccc(Cl)c(Cl)c1)C(=O)c1ccccc1 (stereo not given),8.1,,,2.51 nM
COc1ccccc1C(=O)N1CCCC(CCN2CC(N3CCOCC3)C2)(c2ccc(Cl)c(Cl)c2)C1 (stereo not given),,,,20 nM
O=C(c1ccccc1)N1CCC(CCN2CC(N3CCOCC3)C2)(c2ccc(Cl)c(Cl)c2)C1 (stereo not given),7.5,,,
